Data on two compounds can be found in ChEMBL document CHEMBL6071140, “Ocotillol Derivatives Mitigate Retinal Ischemia-Reperfusion Injury by Regulating the Keap1/Nrf2/ARE Signaling Pathway” (J Med Chem, 2024).

Active and inactive are the calls of the source. The rule behind the calls is not given here.

A short description of data set [1]: Cytotoxicity against rat R28 cells assessed as decrease in cellular ATP content incubated for 24 hrs by CellTiter-Lumi Plus cell viability assay. The settings on record: r28, 24 h. The data set is classed as toxicity, cell-based.
Data set [2] can be described thus: Inhibition of OGD stimulated ROS accumulation in rat R28 cells assessed as fold decrease in ROS level at 1.25 uM preincubated for 24 hrs followed by OGD stimulation by DCFH-DA staining based confocal laser scanning microscopy. The data set is classed as functional.
Data set [3] is described as follows: (§1) Antiinflammatory activity against LPS-stimulated mouse BMDM assessed as fold decrease in TNFalpha expression at 1.25 uM preincubated for 2 hrs followed by LPS addition for 22 hrs by ELISA. The data set is classed as functional. The settings on record: time 24 hrs.
The subject of data set [4] is Macrophage. The data set can be described thus: Antiinflammatory activity against LPS-stimulated mouse macrophages assessed as reduction in NO production at 0.1 to 40 uM preincubated for 2 hrs followed by LPS addition for 22 hrs by Griess reagent based assay. Type of data set: functional, cell-based. As to conditions: dose 0.1-40 µM, time 24.0 hrs. For orientation: The Griess reaction detects nitrite, a stable product of nitric oxide.

Data set [5] in a line: (§2) Antiinflammatory activity against LPS-stimulated mouse BMDM assessed as induction of polarization toward M2 phenotype at 1.25 uM preincubated for 2 hrs followed by LPS addition for 22 hrs by DAPI staining based confocal laser scanning microscopy. Type of data set: functional. As to conditions: time 24 hrs.
Data set [6] concerns R28. Briefly: Induction of Nrf2 translocation from cytosol to nucleus in OGD stimulated rat R28 cells. Type of data set: functional, cell-based.
Data set [7] can be described thus: (§3) Upregulation of NQO1 protein expression in OGD stimulated rat R28 cells by Western blotting analysis. Type of data set: functional. On the technique in general: Immunoblotting shows a protein as a band on a membrane.
The subject of data set [8] is BMDM. The data set can be described thus: Antiinflammatory activity against LPS-stimulated mouse BMDM assessed as reduction in IL6 expression at 1.25 uM preincubated for 2 hrs followed by LPS addition for 22 hrs by ELISA. Type of data set: functional, cell-based. The settings on record: time 24.0 hrs.
A short description of data set [9]: (§4) Upregulation of HO-1 protein expression in OGD stimulated rat R28 cells by Western blotting analysis. Type of data set: functional.
The subject of data set [10] is BMDM. Briefly: Antiinflammatory activity against LPS-stimulated mouse BMDM assessed as reduction in NO production at 1.25 uM preincubated for 2 hrs followed by LPS addition for 22 hrs by Griess reagent based assay. The data set is classed as functional, cell-based. As to conditions: time 24.0 hrs.
A short description of data set [11]: (§5) Upregulation of Nrf2 protein expression in OGD stimulated rat R28 cells by Western blotting analysis. Type of data set: functional.
Data set [12] has as its system R28. The data set can be described thus: Antioxidant activity in rat R28 cells assessed as protection against OGD induced cytotoxicity by measuring cellular ATP level preincubated under OGD condition for 8 hrs followed by reoxygenation for 4 hrs by CellTiter-Lumi Plus cell viability assay. The settings on record: dose 0.1-40 µM, time 12.0 hrs. The data set is classed as functional, cell-based.

For data set [13], the system named is R28. The data set can be described thus: Antioxidant activity in rat R28 cells assessed as protection against OGD induced cytotoxicity by measuring cellular ATP level at 0.1 to 40 uM preincubated under OGD condition for 8 hrs followed by reoxygenation for 4 hrs by CellTiter-Lumi Plus cell viability assay. Type of data set: functional, cell-based. As to conditions: dose 0.1-40 µM, time 12.0 hrs.

In data set [14] the target is Kelch-like ECH-associated protein 1 (Homo sapiens) (UniProt Q14145). Briefly: Binding affinity to Keap1 (unknown origin) incubated for 15 mins by MST assay. The settings on record: filed as activator.
Data set [15] deals with BMDM. The description is as §1. The data set is classed as functional. As to conditions: time 24.0 hrs.
Data set [16] has as its system BMDM. Described as §2. The data set is classed as functional. As to conditions: time 24.0 hrs.
For data set [17], the system named is R28. Described as §3. Type of data set: functional.
For data set [18], the system named is R28. The data set is described as §4. The data set is classed as functional.
The test system of data set [19] is R28. The data set is described as §5. The data set is classed as functional.

Sequence of Kelch-like ECH-associated protein 1 (Homo sapiens) (Q14145 whole entry): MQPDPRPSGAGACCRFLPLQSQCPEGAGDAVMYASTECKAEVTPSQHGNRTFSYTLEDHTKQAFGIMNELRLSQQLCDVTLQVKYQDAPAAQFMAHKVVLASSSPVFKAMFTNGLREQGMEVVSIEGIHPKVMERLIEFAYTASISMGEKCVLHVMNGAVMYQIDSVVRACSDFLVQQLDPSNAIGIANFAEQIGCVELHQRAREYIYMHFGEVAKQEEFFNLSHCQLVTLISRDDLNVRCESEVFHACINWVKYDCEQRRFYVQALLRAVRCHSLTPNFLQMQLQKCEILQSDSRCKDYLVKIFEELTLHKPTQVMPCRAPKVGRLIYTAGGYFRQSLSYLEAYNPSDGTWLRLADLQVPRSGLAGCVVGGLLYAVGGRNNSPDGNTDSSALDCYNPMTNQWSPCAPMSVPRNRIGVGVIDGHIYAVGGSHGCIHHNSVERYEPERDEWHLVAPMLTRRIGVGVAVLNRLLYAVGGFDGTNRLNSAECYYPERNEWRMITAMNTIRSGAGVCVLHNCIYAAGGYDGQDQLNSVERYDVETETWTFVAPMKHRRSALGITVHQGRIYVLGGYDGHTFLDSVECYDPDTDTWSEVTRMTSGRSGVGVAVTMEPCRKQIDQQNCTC

For the compound `CN(CC(=O)O)CC(=O)Nc1nc2c(s1)C[C@]1(C)[C@H]3C[C@@H](O)[C@@H]4[C@@H]([C@]5(C)CC[C@@H](C(C)(C)O)O5)CC[C@@]4(C)[C@]3(C)CC[C@H]1C2(C)C`, the Activity entry in data set [1] was “Non-Toxic”; in [5], 100%; in data set [7] it was 85.54%; in data set [9], 77.93%; in data set [11] it was 96.59%; in data set [12], “Dose-Dependent Effect”. The Activity entry in data set [14] was “Dose-Dependent Effect”. The figures for the “fold change (FC)” value in data set [2] and in [3] were 1.16 and 48.3, respectively. Besides, the result in [4], in data set [6], in [8], in [10] and in data set [13] was Active.
For the compound `CN(CC(=O)O)CC(=O)Nc1nc2c(s1)C[C@]1(C)[C@H]3C[C@@H](O)[C@@H]4[C@@H]([C@]5(C)CC[C@H](C(C)(C)O)O5)CC[C@@]4(C)[C@]3(C)CC[C@H]1C2(C)C`, the Activity entry was “Non-Toxic” in data set [1], “Dose-Dependent Effect” in data set [12] and “Dose-Dependent Effect” in [14]. Also, in data set [2], the “fold change (FC)” value stood at 1.31. Besides, the result in data set [15], in data set [17], in data set [18] and in data set [19] was inactive. In addition, the outcome in data set [4], in data set [16], in data set [8], in [10] and in data set [13] was Active.
